# Measurements taken from patent US7659271B2, “Pyrimidine compound having dibenzylamine structure and medicament comprising the same” (Kowa Company, Ltd., priority 2007, dated 2010).
# Target: T1, CETP (Homo sapiens, UniProt P11597)
# T1 construct: The CETP activity in this plasma was measured with Cholesteryl Ester Transfer Protein Activity kit; from tissue; host or cells: human plasma
# T1 sequence (P11597 18-493): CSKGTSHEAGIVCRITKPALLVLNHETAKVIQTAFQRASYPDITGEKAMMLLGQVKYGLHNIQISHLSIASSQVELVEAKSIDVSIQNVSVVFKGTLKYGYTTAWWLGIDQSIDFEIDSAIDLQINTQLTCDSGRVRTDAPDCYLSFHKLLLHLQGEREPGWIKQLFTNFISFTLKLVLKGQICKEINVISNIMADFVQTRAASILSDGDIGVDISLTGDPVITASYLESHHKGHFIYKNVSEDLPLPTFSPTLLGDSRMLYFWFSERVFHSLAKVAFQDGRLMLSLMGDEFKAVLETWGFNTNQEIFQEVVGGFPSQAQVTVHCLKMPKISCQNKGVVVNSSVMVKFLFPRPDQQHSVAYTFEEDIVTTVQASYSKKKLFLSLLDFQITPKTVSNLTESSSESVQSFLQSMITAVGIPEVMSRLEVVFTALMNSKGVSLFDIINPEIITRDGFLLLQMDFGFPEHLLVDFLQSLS
# Assay: Measurement of CETP inhibitory action in human plasma
# Format: biochemical
# Conditions: incubated with compound 37° C. 4 hours, Roar Biomedical CETP Activity kit, read-out: IC50 (concentration inhibiting the CETP activity by 50%)
# Experimental: A solution obtained by dissolving an exemplary compound in polyethylene glycol/N-methyl-2-pyrrolidone (vol/vol=1/1) was added to human plasma, and the mixture was incubated in an incubator at 37° C. for 4 hours. The CETP activity in this plasma was measured with Cholesteryl Ester Transfer Protein Activity kit (Roar Biomedical, catalog No.: RB-CETP). Specifically, to each well of a 96-well plate, 95 μL of a buffer (10 mM Tris, 150 mM NaCl, 2 mM EDTA, pH 7.4), 2 μL of Donor particle and 2 μL of Acceptor particle were added, 1 μL of the human plasma after the incubation was added to the mixture, and the mixture was incubated in an incubator at 37° C. for 2 hours. After completion of the incubation, fluorescence intensity (FLU) was measured with a fluorescence plate reader (excitation wavelength: 465 nm, emission wavelength: 535 nm). In accordance with the following equation 1, the CETP activity (% of control) was obtained for the compounds of the examples for two or more concentrations. CETP activity (% of control)=(Sample FLU−Blank FLU)×100/(Control FLU−Blank FLU) (Equation 1)
# In the equation, the terms have the following meanings: […]
# Blank FLU: Fluorescence intensity of sample not added with plasma
# Control FLU: Fluorescence intensity of plasma not added with solution of compound
# Sample FLU: Fluorescence intensity of plasma added with solution of compound
# A value obtained by subtracting the value of the CETP activity from 100 was defined as the CETP inhibitory rate of each exemplary compound, and a concentration inhibiting the CETP activity by 50% (IC50) was calculated for each exemplary compound from the values of the CETP inhibitory rate at two or more concentrations.
row,SMILES,IC50 [nM]
1,"CCN(CC1CCCC1)c1ccc(C)cc1CN(c1ncc(OCCS(C)(=O)=O)cn1)C(C)c1cc(C(F)(F)F)cc(C(F)(F)F)c1 (centres unmarked) [Example 9, N-{1-[3,5-bis(trifluoromethyl)phenyl]ethyl}-N-({2-[(cyclopentylmethyl)(ethyl)amino]-5-methylphenyl}methyl)-5-[2-(methylsulfonyl)ethoxy]pyrimidin-2-amine]",70
2,"CCN(CC1CCCC1)c1cc(F)ccc1CN(c1ncc(OCCS(C)(=O)=O)cn1)C(C)c1cc(C(F)(F)F)cc(C(F)(F)F)c1 (centres unmarked) [Example 11, N-{1-[3,5-bis(trifluoromethyl)phenyl]ethyl}-N-({2-[(cyclopentylmethyl)(ethyl)amino]-4-fluorophenyl}methyl)-5-[2-(methylsulfonyl)ethoxy]pyrimidin-2-amine]",250
3,"CCN(C[C@H]1CC[C@H](CC(=O)O)CC1)c1ccc(C(F)(F)F)cc1CN(c1ncc(OCCS(C)(=O)=O)cn1)C(C)c1cc(C(F)(F)F)cc(C(F)(F)F)c1 (stereo partly drawn) [Example 45, trans-{4-[({2-[({1-[3,5-bis(trifluoromethyl)phenyl]ethyl}{5-[2-(methylsulfonyl)ethoxy]pyrimidin-2-yl}amino)methyl]-4-(trifluoromethyl)phenyl}(ethyl)amino)methyl]cyclohexyl}acetic acid]",120
4,"CCN(CC1CCCC1)c1cc(C(F)(F)F)ccc1CN(c1ncc(OCCS(C)(=O)=O)cn1)C(C)c1cc(C(F)(F)F)cc(C(F)(F)F)c1 (centres unmarked) [Example 16, N-{1-[3,5-bis(trifluoromethyl)phenyl]ethyl}-N-({2-[(cyclopentylmethyl)(ethyl)amino]-4-(trifluoromethyl)phenyl}methyl)-5-[2-(methylsulfonyl)ethoxy]pyrimidin-2-amine]",150
5,"CCN(CC1CCCC1)c1cc(Cl)ccc1CN(c1ncc(OCCS(C)(=O)=O)cn1)C(C)c1cc(C(F)(F)F)cc(C(F)(F)F)c1 (centres unmarked) [Example 24, N-{1-[3,5-bis(trifluoromethyl)phenyl]ethyl}-N-({4-chloro-2-[(cyclopentylmethyl)(ethyl)amino]phenyl}methyl)-5-[2-(methylsulfonyl)ethoxy]pyrimidin-2-amine]",300
6,"CCN(CC1CCCC1)c1ccc(OC)cc1CN(c1ncc(OCCS(C)(=O)=O)cn1)C(C)c1cc(C(F)(F)F)cc(C(F)(F)F)c1 (centres unmarked) [Example 5, N-{1-[3,5-bis(trifluoromethyl)phenyl]ethyl}-N-({2-[(cyclopentylmethyl)(ethyl)amino]-5-methoxyphenyl}methyl)-5-[2-(methylsulfonyl)ethoxy]pyrimidin-2-amine]",50
7,"CCN(CC1CCCC1)c1ccccc1CN(c1ncc(OCCS(C)(=O)=O)cn1)C(C)c1cc(C(F)(F)F)cc(C(F)(F)F)c1 (centres unmarked) [Example 20, N-{1-[3,5-bis(trifluoromethyl)phenyl]ethyl}-N-({2-[(cyclopentylmethyl)(ethyl)amino]phenyl}methyl)-5-[2-(methylsulfonyl)ethoxy]pyrimidin-2-amine]",800
8,"CCN(CC1CCCC1)c1ccc(C(F)(F)F)cc1CN(c1ncc(OCC[S+](C)[O-])cn1)C(C)c1cc(C(F)(F)F)cc(C(F)(F)F)c1 (centres unmarked) [Example 2, N-{1-[3,5-bis(trifluoromethyl)phenyl]ethyl}-N-({2-[(cyclopentylmethyl)(ethyl)amino]-5-(trifluoromethyl)phenyl}methyl)-5-[2-(methylsulfinyl)ethoxy]pyrimidin-2-amine]",40
9,"CCN(CC1CCCC1)c1cc(F)c(F)cc1CN(c1ncc(OCCS(C)(=O)=O)cn1)C(C)c1cc(C(F)(F)F)cc(C(F)(F)F)c1 (centres unmarked) [Example 22, N-{1-[3,5-bis(trifluoromethyl)phenyl]ethyl}-N-({2-[(cyclopentylmethyl)(ethyl)amino]-4,5-difluorophenyl}methyl)-5-[2-(methylsulfonyl)ethoxy]pyrimidin-2-amine]",500
10,"CCN(CC1CCCC1)c1ccc(F)cc1CN(c1ncc(OCCS(C)(=O)=O)cn1)C(C)c1cc(C(F)(F)F)cc(C(F)(F)F)c1 (centres unmarked) [Example 26, N-{1-[3,5-bis(trifluoromethyl)phenyl]ethyl}-N-({2-[(cyclopentylmethyl)(ethyl)amino]-5-fluorophenyl}methyl)-5-[2-(methylsulfonyl)ethoxy]pyrimidin-2-amine]",250

# More lines, now with the values ahead:
row,IC50 [nM],SMILES
1,300,"CCN(CC1CCCC1)c1c(F)cc(F)cc1CN(c1ncc(OCCS(C)(=O)=O)cn1)C(C)c1cc(C(F)(F)F)cc(C(F)(F)F)c1 (centres unmarked) [Example 7, N-{1-[3,5-bis(trifluoromethyl)phenyl]ethyl}-N-({2-[(cyclopentylmethyl)(ethyl)amino]-3,5-difluorophenyl}methyl)-5-[2-(methylsulfonyl)ethoxy]pyrimidin-2-amine]"
2,200,"CCN(CC1CCCC1)c1cc(Br)ccc1CN(c1ncc(OCCS(C)(=O)=O)cn1)C(C)c1cc(C(F)(F)F)cc(C(F)(F)F)c1 (centres unmarked) [Example 28, N-{1-[3,5-bis(trifluoromethyl)phenyl]ethyl}-N-({4-bromo-2-[(cyclopentylmethyl)(ethyl)amino]phenyl}methyl)-5-[2-(methylsulfonyl)ethoxy]pyrimidin-2-amine]"
3,30,"CCN(CC1CCCC1)c1ccc(C(F)(F)F)cc1CN(c1ncc(OCCS(C)(=O)=O)cn1)C(C)c1cc(C#N)cc(C(F)(F)F)c1 (centres unmarked) [Example 32, 3-{1-[({2-[(cyclopentylmethyl)(ethyl)amino]-5-trifluoromethylphenyl}methyl){5-[2-(methylsulfonyl)ethoxy]pyrimidin-2-yl}amino]ethyl}-5-(trifluoromethyl)benzonitrile]"
4,400,"CC(c1cc(C(F)(F)F)cc(C(F)(F)F)c1)N(Cc1cc(F)cc(F)c1N(CC1CC1)CC1CC1)c1ncc(OCCS(C)(=O)=O)cn1 (centres unmarked) [Example 47, N-({2-[bis(cyclopropylmethyl)amino]-3,5-difluorophenyl}methyl)-N-{1-[3,5-bis(trifluoromethyl)phenyl]ethyl}-5-[2-(methylsulfonyl)ethoxy]pyrimidin-2-amine]"
5,300,"CCN(CC1CCCC1)c1cc(C(F)(F)F)ccc1CN(c1ncc(OCC[S+](C)[O-])cn1)C(C)c1cc(C(F)(F)F)cc(C(F)(F)F)c1 (centres unmarked) [Example 15, N-{1-[3,5-bis(trifluoromethyl)phenyl]ethyl}-N-({2-[(cyclopentylmethyl)(ethyl)amino]-4-(trifluoromethyl)phenyl}methyl)-5-[2-(methylsulfinyl)ethoxy]pyrimidin-2-amine]"
6,100,"CCN(CC1CCCC1)c1cc(OC)ccc1CN(c1ncc(OCCS(C)(=O)=O)cn1)C(C)c1cc(C(F)(F)F)cc(C(F)(F)F)c1 (centres unmarked) [Example 13, N-{1-[3,5-bis(trifluoromethyl)phenyl]ethyl}-N-({2-[(cyclopentylmethyl)(ethyl)amino]-4-methoxyphenyl}methyl)-5-[2-(methylsulfonyl)ethoxy]pyrimidin-2-amine]"
7,45,"CCN(CC1CCCC1)c1ccc(Br)cc1CN(c1ncc(OCCS(C)(=O)=O)cn1)C(C)c1cc(C(F)(F)F)cc(C(F)(F)F)c1 (centres unmarked) [Example 30, N-{1-[3,5-bis(trifluoromethyl)phenyl]ethyl}-N-({5-bromo-2-[(cyclopentylmethyl)(ethyl)amino]phenyl}methyl)-5-[2-(methylsulfonyl)ethoxy]pyrimidin-2-amine]"
